Source: PubChem BioAssay (NCI)
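Values below derive from 48-hour exposures of cells grown in 96-well plates, with endpoints linearly interpolated between the two concentrations bracketing the appropriate inhibition level. At the TGI there is no net growth.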

Legend:
Test in all cases: NCI-60 cell line screen, 48 h
A549 NSCLC = tested on: A549 NSCLC
ACHN renal = tested on: ACHN renal
CAKI-1 renal = tested on: CAKI-1 renal
CCRF-CEM leukemia = tested on: CCRF-CEM leukemia
DLD-1 colon = tested on: DLD-1 colon
DMS 114 small cell lung = tested on: DMS 114 small cell lung
DMS 273 small cell lung = tested on: DMS 273 small cell lung
EKVX NSCLC = tested on: EKVX NSCLC
HCC-2998 colon = tested on: HCC-2998 colon
HCT-116 colon = tested on: HCT-116 colon
HCT-15 colon = tested on: HCT-15 colon
HL-60(TB) leukemia = tested on: HL-60(TB) leukemia
HOP-18 NSCLC = tested on: HOP-18 NSCLC
HOP-62 NSCLC = tested on: HOP-62 NSCLC
HT29 colon = tested on: HT29 colon
IGROV1 ovarian = tested on: IGROV1 ovarian
K-562 leukemia = tested on: K-562 leukemia
KM20L2 colon = tested on: KM20L2 colon
LOX IMVI melanoma = tested on: LOX IMVI melanoma
LXFL 529 NSCLC = tested on: LXFL 529 NSCLC
M14 melanoma = tested on: M14 melanoma
M19-MEL melanoma = tested on: M19-MEL melanoma
MALME-3M melanoma = tested on: MALME-3M melanoma
MOLT-4 leukemia = tested on: MOLT-4 leukemia
NCI-H226 lung = tested on: NCI-H226 lung
NCI-H23 lung = tested on: NCI-H23 lung
NCI-H460 lung = tested on: NCI-H460 lung
NCI-H522 lung = tested on: NCI-H522 lung
OVCAR-3 ovarian = tested on: OVCAR-3 ovarian
OVCAR-4 ovarian = tested on: OVCAR-4 ovarian
OVCAR-5 ovarian = tested on: OVCAR-5 ovarian
OVCAR-8 ovarian = tested on: OVCAR-8 ovarian
RPMI-8226 leukemia = tested on: RPMI-8226 leukemia
RXF 393 renal = tested on: RXF 393 renal
RXF-631 renal = tested on: RXF-631 renal
SF-268 CNS = tested on: SF-268 CNS
SF-295 CNS = tested on: SF-295 CNS
SF-539 CNS = tested on: SF-539 CNS
SK-MEL-2 melanoma = tested on: SK-MEL-2 melanoma
SK-MEL-5 melanoma = tested on: SK-MEL-5 melanoma
SK-OV-3 ovarian = tested on: SK-OV-3 ovarian
SN12C renal = tested on: SN12C renal
SNB-19 CNS = tested on: SNB-19 CNS
SNB-75 CNS = tested on: SNB-75 CNS
SNB-78 CNS = tested on: SNB-78 CNS
SR leukemia = tested on: SR leukemia
SW-620 colon = tested on: SW-620 colon
TK-10 renal = tested on: TK-10 renal
U251 CNS = tested on: U251 CNS
UACC-257 melanoma = tested on: UACC-257 melanoma
UACC-62 melanoma = tested on: UACC-62 melanoma
UO-31 renal = tested on: UO-31 renal
786-0 renal = tested on: 786-0 renal
A498 renal = tested on: A498 renal
COLO 205 colon = tested on: COLO 205 colon
KM12 colon = tested on: KM12 colon
XF 498 CNS = tested on: XF 498 CNS

SMILES: O=C1c2cccc3c2C(=O)c2c(cccc21)OCCOCCOCCOCCO3
- TGI (A549 NSCLC): > 100 µM
- TGI (ACHN renal): > 100 µM
- TGI (CAKI-1 renal): > 100 µM
- TGI (CCRF-CEM leukemia): > 100 µM
- TGI (DLD-1 colon): > 100 µM
- TGI (DMS 114 small cell lung): > 100 µM
- TGI (DMS 273 small cell lung): > 100 µM
- TGI (EKVX NSCLC): > 100 µM
- TGI (HCC-2998 colon): > 100 µM
- TGI (HCT-116 colon): > 100 µM
- TGI (HCT-15 colon): > 100 µM
- TGI (HL-60(TB) leukemia): > 100 µM
- TGI (HOP-18 NSCLC): > 100 µM
- TGI (HOP-62 NSCLC): > 100 µM
- TGI (HT29 colon): > 100 µM
- TGI (IGROV1 ovarian): > 100 µM
- TGI (K-562 leukemia): > 100 µM
- TGI (KM20L2 colon): > 100 µM
- TGI (LOX IMVI melanoma): > 100 µM
- TGI (LXFL 529 NSCLC): > 100 µM
- TGI (M14 melanoma): > 100 µM
- TGI (M19-MEL melanoma): > 100 µM
- TGI (MALME-3M melanoma): > 100 µM
- TGI (MOLT-4 leukemia): > 100 µM
- TGI (NCI-H226 lung): > 100 µM
- TGI (NCI-H23 lung): > 100 µM
- TGI (NCI-H460 lung): > 100 µM
- TGI (NCI-H522 lung): > 100 µM
- TGI (OVCAR-3 ovarian): > 100 µM
- TGI (OVCAR-4 ovarian): > 100 µM
- TGI (OVCAR-5 ovarian): > 100 µM
- TGI (OVCAR-8 ovarian): > 100 µM
- TGI (RPMI-8226 leukemia): > 100 µM
- TGI (RXF 393 renal): > 100 µM
- TGI (RXF-631 renal): > 100 µM
- TGI (SF-268 CNS): > 100 µM
- TGI (SF-295 CNS): > 100 µM
- TGI (SF-539 CNS): > 100 µM
- TGI (SK-MEL-2 melanoma): > 100 µM
- TGI (SK-MEL-5 melanoma): > 100 µM
- TGI (SK-OV-3 ovarian): > 100 µM
- TGI (SN12C renal): > 100 µM
- TGI (SNB-19 CNS): > 100 µM
- TGI (SNB-75 CNS): > 100 µM
- TGI (SNB-78 CNS): > 100 µM
- TGI (SR leukemia): 58.9 µM
- TGI (SW-620 colon): > 100 µM
- TGI (TK-10 renal): > 100 µM
- TGI (U251 CNS): > 100 µM
- TGI (UACC-257 melanoma): > 100 µM
- TGI (UACC-62 melanoma): > 100 µM
- TGI (UO-31 renal): 99.8 µM

SMILES: Cc1ccc(S(=O)(=O)N(C=O)N=C2CCN(Cc3ccccc3)CC2)cc1
- TGI (786-0 renal): > 100 µM
- TGI (A498 renal): > 100 µM
- TGI (A549 NSCLC): > 100 µM
- TGI (ACHN renal): > 100 µM
- TGI (CAKI-1 renal): > 100 µM
- TGI (CCRF-CEM leukemia): > 100 µM
- TGI (COLO 205 colon): > 100 µM
- TGI (DLD-1 colon): > 100 µM
- TGI (DMS 273 small cell lung): > 100 µM
- TGI (EKVX NSCLC): > 100 µM
- TGI (HCC-2998 colon): > 100 µM
- TGI (HCT-116 colon): > 100 µM
- TGI (HCT-15 colon): > 100 µM
- TGI (HL-60(TB) leukemia): > 100 µM
- TGI (HOP-18 NSCLC): > 100 µM
- TGI (HOP-62 NSCLC): > 100 µM
- TGI (HT29 colon): > 100 µM
- TGI (IGROV1 ovarian): > 100 µM
- TGI (K-562 leukemia): > 100 µM
- TGI (KM12 colon): > 100 µM
- TGI (KM20L2 colon): > 100 µM
- TGI (LOX IMVI melanoma): > 100 µM
- TGI (LXFL 529 NSCLC): > 100 µM
- TGI (M14 melanoma): > 100 µM
- TGI (M19-MEL melanoma): > 100 µM
- TGI (MALME-3M melanoma): > 100 µM
- TGI (MOLT-4 leukemia): > 100 µM
- TGI (NCI-H226 lung): > 100 µM
- TGI (NCI-H23 lung): > 100 µM
- TGI (NCI-H460 lung): > 100 µM
- TGI (NCI-H522 lung): > 100 µM
- TGI (OVCAR-3 ovarian): > 100 µM
- TGI (OVCAR-4 ovarian): > 100 µM
- TGI (OVCAR-5 ovarian): > 100 µM
- TGI (OVCAR-8 ovarian): > 100 µM
- TGI (RPMI-8226 leukemia): > 100 µM
- TGI (RXF 393 renal): > 100 µM
- TGI (RXF-631 renal): > 100 µM
- TGI (SF-295 CNS): > 100 µM
- TGI (SF-539 CNS): > 100 µM
- TGI (SK-MEL-2 melanoma): > 100 µM
- TGI (SK-MEL-5 melanoma): > 100 µM
- TGI (SK-OV-3 ovarian): > 100 µM
- TGI (SN12C renal): > 100 µM
- TGI (SNB-19 CNS): > 100 µM
- TGI (SNB-75 CNS): > 100 µM
- TGI (SNB-78 CNS): > 100 µM
- TGI (SR leukemia): > 100 µM
- TGI (SW-620 colon): > 100 µM
- TGI (TK-10 renal): > 100 µM
- TGI (U251 CNS): > 100 µM
- TGI (UACC-257 melanoma): > 100 µM
- TGI (UACC-62 melanoma): > 100 µM
- TGI (UO-31 renal): > 100 µM
- TGI (XF 498 CNS): > 100 µM
